Measurements reported in ChEMBL document CHEMBL4619799, “Mechanistic Insight into Antiretroviral Potency of 2'-Deoxy-2'-β-fluoro-4'-azidocytidine (FNC) with a Long-Lasting Effect on HIV-1 Prevention” (J Med Chem, 2020).
Calls of active or inactive are those of the source. The calls are words filed in the database; no cut-off is given here.

Columns and labels:
[1] = test system: Homo sapiens; experiment: In vivo inhibition of Vif-induced A3G degradation in HIV1 infected patient assessed as increase in A3G expression in CD4-positive T cells at 4 mg administered daily for 7 days measured 24 hrs post-last dose by Western blot analysis; format: functional, organism-based
[2] = target: Virion infectivity factor (Human immunodeficiency virus type 1 group M subtype B (isolate NY5)(HIV-1)) (UniProt P12504); experiment: Inhibition of HIV1 HA-tagged Vif expressed in HEK293T cells co-expressing Myc-tagged pcDNA-APOBEC3G and pcDNA-ubiquitin-His assessed as reduction in Vif-mediated A3G polyubiquitination at 3.5 to 35 nM measured after 48 hrs by Western blot analysis; format: cell-based; settings: Human immunodeficiency virus 1, HEK-293T
[3] = Tmax in monkey PBMC assessed as FNC-TP level at 6 mg/kg, po administered as single dose by LC-MS/MS analysis; format: ADME, organism-based, Macaca mulatta; settings: rhesus monkey, in vivo
[4] = Effect on CD69 surface expression in IL2-induced human PBMC-derived CD4-positive T cells at 100 nM measured after 48 hrs by immunostaining based flow cytometry; format: ADME; settings: 0.1 µM
[5] = Cytotoxicity against human Hut/CCR5 cells assessed as reduction in cell viability measured after 72 hrs by MTT assay; format: cell-based
[6] = target: Virion infectivity factor (Human immunodeficiency virus type 1 group M subtype B (isolate NY5)(HIV-1)) (UniProt P12504); experiment: Inhibition of HIV1 HA-tagged Vif expressed in HEK293T cells co-expressing Myc-tagged pcDNA-APOBEC3G assessed as reduction in Vif-mediated A3G degradation at 10 nM measured after 48 hrs by Western blot analysis; format: cell-based; settings: Human immunodeficiency virus 1, HEK-293T
[7] = Tmax in monkey plasma at 1 mg/kg, po administered as single dose by LC-MS/MS analysis; format: ADME, organism-based, Macaca mulatta; settings: rhesus monkey
[8] = Cytotoxicity against HEK293 cells assessed as cell viability by MTT assay; format: cell-based; settings: human
[9] = Cmax in monkey PBMC assessed as FNC-TP level at 6 mg/kg, po administered as single dose by LC-MS/MS analysis; format: ADME, organism-based, Macaca mulatta; set-up: dose 6 mg/kg, route oral; settings: rhesus monkey, in vivo
[10] = AUC (0 to 24 hrs) in monkey at 6 mg/kg, po administered as single dose by LC-MS/MS analysis; format: ADME, organism-based, Macaca mulatta; set-up: dose 6 mg/kg, time < 24 hr, route oral; settings: rhesus monkey, in vivo

Chain of Virion infectivity factor (Human immunodeficiency virus type 1 group M subtype B (isolate NY5)(HIV-1)) (P12504 whole entry): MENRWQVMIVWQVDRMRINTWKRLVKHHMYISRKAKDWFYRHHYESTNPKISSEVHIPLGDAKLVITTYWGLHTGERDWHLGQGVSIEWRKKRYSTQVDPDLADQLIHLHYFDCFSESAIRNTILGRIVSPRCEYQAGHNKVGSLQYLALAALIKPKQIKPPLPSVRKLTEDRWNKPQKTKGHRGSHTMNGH

[N-]=[N+]=N[C@]1(CO)O[C@@H](n2ccc(N)nc2=O)[C@@H](F)[C@@H]1O [RO-0622]
inhibition [1]: Active
inhibition [2]: Active
Tmax [3]: 6 h
Activity [4]: Non-Toxic
CC50 at 72 h [5]: 340 nM
inhibition [6]: Active
Tmax [7]: 1 h
CC50 [8]: ≥ 25000 nM
Cmax [9]: 4.07 nM
AUC(0-t) at 24 h [10]: 7.58 µM·h
